Columns and labels:
[1] = target: T1, angiotensin-converting enzyme (ACE) (Homo sapiens, UniProt P12821); assay: Percentage change in the angiotensin II/angiotensin I ratio four hours after the initial enalapril dose in children with heart failure; assay type: in vivo; conditions: eight children with heart failure, four hours after first dose, median 0.06 mg/kg enalapril maleate
T1 construct: from tissue; host or cells: in vivo in human subjects; ACE activity read indirectly from the plasma angiotensin II/angiotensin I ratio
Experimental: In the pharmacokinetic bridging studies, a pharmacokinetic/pharmacodynamic profile was usually obtained in ACE inhibitor-naïve subjects at the initial dose visit, with pharmacokinetic samples collected before and 1, 2, 4, 6, and 12 h after enalapril orodispersible minitablet administration, as well as pharmacodynamic samples collected before and 4 h after administration. Alternatively, the pharmacokinetic/pharmacodynamic profile could also be obtained after reaching steady state at the optimal dose. In this case, the 12 h pharmacokinetic sample was omitted. Single pharmacokinetic and pharmacodynamic samples were collected in immediate succession during the remaining study visits. […]
For the simultaneous determination of several angiotensin peptides, including angiotensin I and angiotensin II, a validated multiplex liquid chromatography high-resolution mass spectrometry method was applied. Following precipitation and solid-phase extraction, the samples were analyzed using a Nexera XR liquid chromatography system (Shimadzu, Duisburg, Germany) coupled to a TripleTOF® 6600 mass spectrometer from AB Sciex (Concord, ON, Canada). […]
The percentage change in the angiotensin II/angiotensin I ratio was calculated in children with heart failure in whom an angiotensin II/angiotensin I ratio was available before the first dose of enalapril and four hours afterwards.

ACE activity = test system: ACE activity; parameters: method as in PMID 8512763; conditions: eight infants with congestive heart failure, after four hours, single dose of 0.25 mg/kg enalapril maleate; cited from earlier work
[2] = parameters: method as in PMID 26256099; conditions: parameters estimated in children extrapolated to an adult weight of 70 kg; cited from earlier work
[3] = Serum enalaprilat concentrations in children with heart failure treated with enalapril orodispersible minitablets; assay type: in vivo, human; conditions: median first dose 0.06 mg/kg, median daily dose 0.11 mg/kg enalapril maleate
Experimental: For the studies, a dosing regimen with age- and weight-dependent recommended titration doses, target doses, and maximum doses was developed using physiologically based pharmacokinetic simulation (Table S2). The appropriate dosage for each subject was selected based on the judgment of the investigator. Daily doses ≤ 0.25 mg were administered once daily in the morning, and daily doses > 0.25 mg were administered in two equal divided doses in the morning and evening. The required number of orodispersible minitablets with 0.25 mg enalapril maleate or 1 mg enalapril maleate (now approved as Aqumeldi®, Proveca Pharma Limited, Dublin, Ireland) was placed in the patient’s cheek pouch. The orodispersible minitablets rapidly disintegrated into small, easily swallowable particles. To facilitate swallowing, a fluid of the patient’s/parent’s choice (e.g., breast milk, formula milk, cow milk, water) could be administered.
In the pharmacokinetic bridging studies, a pharmacokinetic/pharmacodynamic profile was usually obtained in ACE inhibitor-naïve subjects at the initial dose visit, with pharmacokinetic samples collected before and 1, 2, 4, 6, and 12 h after enalapril orodispersible minitablet administration, as well as pharmacodynamic samples collected before and 4 h after administration. […]

T1 sequence (P12821 30-1306): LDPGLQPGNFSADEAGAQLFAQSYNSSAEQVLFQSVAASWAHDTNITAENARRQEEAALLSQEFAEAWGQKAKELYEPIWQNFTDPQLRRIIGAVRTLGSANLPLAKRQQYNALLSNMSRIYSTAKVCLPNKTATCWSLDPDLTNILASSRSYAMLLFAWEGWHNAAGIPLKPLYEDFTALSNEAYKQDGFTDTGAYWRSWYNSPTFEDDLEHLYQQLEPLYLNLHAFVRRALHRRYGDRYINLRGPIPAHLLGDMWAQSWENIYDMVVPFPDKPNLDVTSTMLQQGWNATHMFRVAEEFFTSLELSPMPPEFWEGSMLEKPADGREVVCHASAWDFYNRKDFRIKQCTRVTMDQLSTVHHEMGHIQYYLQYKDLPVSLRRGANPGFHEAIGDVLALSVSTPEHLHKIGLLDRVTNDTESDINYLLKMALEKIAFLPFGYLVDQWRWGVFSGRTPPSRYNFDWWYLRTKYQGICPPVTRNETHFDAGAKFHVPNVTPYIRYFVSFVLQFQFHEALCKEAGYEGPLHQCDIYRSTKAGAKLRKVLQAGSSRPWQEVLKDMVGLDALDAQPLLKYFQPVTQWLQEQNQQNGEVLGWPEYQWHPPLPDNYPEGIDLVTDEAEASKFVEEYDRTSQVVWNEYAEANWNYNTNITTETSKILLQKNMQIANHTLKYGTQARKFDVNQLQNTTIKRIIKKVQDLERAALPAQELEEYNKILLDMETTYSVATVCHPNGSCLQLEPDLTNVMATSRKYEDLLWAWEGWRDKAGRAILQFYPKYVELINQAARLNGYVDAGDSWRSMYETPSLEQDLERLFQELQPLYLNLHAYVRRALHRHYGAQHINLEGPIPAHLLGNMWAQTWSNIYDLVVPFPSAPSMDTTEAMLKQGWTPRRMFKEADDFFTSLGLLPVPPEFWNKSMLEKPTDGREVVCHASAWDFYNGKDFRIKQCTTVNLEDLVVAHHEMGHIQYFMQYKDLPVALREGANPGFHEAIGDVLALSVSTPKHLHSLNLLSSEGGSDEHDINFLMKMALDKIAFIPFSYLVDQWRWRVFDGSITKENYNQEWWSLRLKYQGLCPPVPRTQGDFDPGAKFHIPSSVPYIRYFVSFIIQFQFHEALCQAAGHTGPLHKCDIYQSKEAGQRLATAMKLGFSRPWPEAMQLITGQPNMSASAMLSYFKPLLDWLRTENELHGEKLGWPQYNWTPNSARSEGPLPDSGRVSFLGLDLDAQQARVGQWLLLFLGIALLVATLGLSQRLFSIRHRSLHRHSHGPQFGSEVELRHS

| Structure (SMILES) | decrease in angiotensin II/angiotensin I ratio, median [1] | decrease in angiotensin II/angiotensin I ratio, range [1] | mean inhibition of ACE activity (ACE activity) | apparent central volume of distribution of enalaprilat [2] | apparent clearance of enalaprilat [2] | highest measured enalaprilat concentration [3] |
| --- | --- | --- | --- | --- | --- | --- |
| CCOC(=O)[C@H](CCc1ccccc1)N[C@@H](C)C(=O)N1CCC[C@H]1C(=O)O [enalapril] | 79.3% | 21.4–92.7% | 75.5% | – | – | – |
| C[C@H](N[C@@H](CCc1ccccc1)C(=O)O)C(=O)N1CCC[C@H]1C(=O)O [enalaprilat] | – | – | – | 168.8 L | 18.2 L/h | 18.3 µg/L |

Source: article PMC12567347, “Angiotensin II/Angiotensin I Ratio as a New Pharmacodynamic Parameter for Population Modelling in Healthy Adults and Children with Heart Failure Treated with Enalapril” (Pharmaceutics, 2025)
